# pKd: −log10 of the molar value.
# How the values were obtained:
# TSSK1B = biological target: T1, TSSK1B (Homo sapiens, UniProt Q9BXA7); assay: kinome scan; format: binding; conditions: 10 µM
# T1 construct: purchased DiscoverX (KINOMEscan)
# CLK3 = biological target: T2, CLK3 (Homo sapiens, UniProt P49761); assay: kinome scan; format: binding; conditions: 10 µM
# T2 construct: purchased DiscoverX (KINOMEscan)
# RIOK2 = biological target: T3, RIOK2 (Homo sapiens, UniProt Q9BVS4); assay: kinome scan; format: binding
# T3 construct: T7 phage fusion (kinase-tagged phage); purchased DiscoverX; host or cells: BL21-derived E. coli (T7 phage)
# [1] = biological target: T4, JAK1(JH2domain-pseudokinase) (Homo sapiens, UniProt P23458); assay: kinome scan; format: binding; conditions: 10 µM
# T4 construct: JAK1(JH2domain-pseudokinase); purchased DiscoverX (KINOMEscan)
# CSNK1A1L = biological target: T5, CSNK1A1L (Homo sapiens, UniProt Q8N752); assay: kinome scan; format: binding; conditions: 10 µM
# T5 construct: purchased DiscoverX (KINOMEscan)
# DYRK2 = biological target: T6, DYRK2 (Homo sapiens, UniProt Q92630); assay: kinome scan; format: binding
# T6 construct: purchased DiscoverX (KINOMEscan)
# T6 sequence (Q92630 1-601): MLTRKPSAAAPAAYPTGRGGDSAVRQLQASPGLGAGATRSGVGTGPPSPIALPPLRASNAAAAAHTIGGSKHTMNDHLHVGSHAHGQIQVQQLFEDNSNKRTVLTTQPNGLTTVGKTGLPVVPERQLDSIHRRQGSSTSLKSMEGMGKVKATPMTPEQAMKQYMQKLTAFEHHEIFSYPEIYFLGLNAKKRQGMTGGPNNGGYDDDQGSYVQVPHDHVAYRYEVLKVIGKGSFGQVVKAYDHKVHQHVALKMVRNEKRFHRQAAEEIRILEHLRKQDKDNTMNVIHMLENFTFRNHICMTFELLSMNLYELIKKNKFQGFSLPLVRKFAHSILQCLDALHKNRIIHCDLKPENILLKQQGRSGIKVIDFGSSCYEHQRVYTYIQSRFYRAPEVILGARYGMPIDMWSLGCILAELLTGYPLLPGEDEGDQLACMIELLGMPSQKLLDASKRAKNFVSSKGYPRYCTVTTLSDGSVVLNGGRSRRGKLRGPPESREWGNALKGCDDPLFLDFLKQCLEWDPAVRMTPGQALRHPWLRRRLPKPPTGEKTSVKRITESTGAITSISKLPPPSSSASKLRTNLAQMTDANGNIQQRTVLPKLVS
# MST1R = biological target: T7, MST1R (Homo sapiens, UniProt Q04912); assay: kinome scan; format: binding; conditions: 10 µM
# T7 construct: purchased DiscoverX (KINOMEscan)
# PIK3C2B = biological target: T8, PIK3C2B (Homo sapiens, UniProt O00750); assay: kinome scan; format: binding; conditions: 10 µM
# T8 construct: purchased DiscoverX (KINOMEscan)
# FLT3(D835H) = biological target: T9, FLT3(D835H) (Homo sapiens, UniProt P36888, D835H); assay: kinome scan; format: binding; conditions: 10 µM
# T9 construct: purchased DiscoverX (KINOMEscan)
# TYK2 = TYK2 (Homo sapiens, UniProt P29597); assay: Kd select analysis (DiscoverX); format: binding
# Experimental: Hits are identified by an ultra-sensitive quantitative PCR detecting the specific DNA tag linked to each kinase (Supplementary Figure S2). The drug is used at a concentration of 10 µM and results are expressed as the percentage of signal (kinase PCR detection) with respect to DMSO control conditions. […] Interactions between 0 and 20% of reduction were considered to be the most significant ones.
# TLK2 = biological target: T10, TLK2 (Homo sapiens, UniProt Q86UE8); assay: kinome scan; format: binding; conditions: 10 µM
# T10 construct: purchased DiscoverX (KINOMEscan)
# [2] = biological target: T11, JAK1(JH1domain-catalytic) (Homo sapiens, UniProt P23458); assay: kinome scan; format: binding; conditions: 10 µM
# T11 construct: JAK1(JH1domain-catalytic); purchased DiscoverX (KINOMEscan)
# AURKA = biological target: T12, AURKA (Homo sapiens, UniProt O14965); assay: kinome scan; format: binding; conditions: 10 µM
# T12 construct: purchased DiscoverX (KINOMEscan)
# [3] = tested on: CGR8EF1αS,RLuc-Tα1,FLuc cells; assay: cell viability by propidium iodide; format: cell-based, mouse; conditions: up to 10 µM, 72 h
# Experimental: The CGR8 mouse PSC were cultured as described ([Suter et al., 2009]). For neural induction, CGR8 cells were plated in 96-well plates at a density of 10,000 cells/cm^2 on gelatine-coated cell culture plates, in differentiation medium [BHK-21 medium supplemented with 20% foetal calf serum (Thermofisher), L-glutamine 2 mM (Thermofisher), non-essential amino acids (1X, Thermofisher), sodium pyruvate 1 mM (Thermofisher), penicillin/streptomycin 50 U/ml (Thermofisher)]. CGR8EF1αS,RLuc-Tα1,FLuc cells were described in ([Suter et al., 2009]) and were cultured as described above. Luminescence assays were directly performed in 96-well plates with the Dual Luciferase Reporter Assay System (Promega) according to the manufacturer’s instructions. Luminescence was measured with the SpectraMax L Microplate luminometer (Molecular Devices). Cell viability in the wells was measured by the addition of propidium iodide 1 µg/ml in 100 µL of PBS and fluorescence was assessed in each well using a FluoStar Optima reader (Pharmaceutical Technology Group at the University of Geneva).
# After two days, cells were lysed for the quantification of intracellular ATP. […] After three days, cells were lysed for the quantification of F-luminescence (FLuc) and R-luminescence (RLuc) in the presence of the respective substrates.
# EPHA8 = biological target: T13, EPHA8 (Homo sapiens, UniProt P29322); assay: kinome scan; format: binding; conditions: 10 µM
# T13 construct: purchased DiscoverX (KINOMEscan)
# ASK1 = biological target: T14, ASK1 (Homo sapiens, UniProt Q99683); assay: kinome scan; format: binding; conditions: 10 µM
# T14 construct: purchased DiscoverX (KINOMEscan)
# YANK2 = biological target: T15, YANK2 (Homo sapiens, UniProt Q9NY57); assay: kinome scan; format: binding; conditions: 10 µM
# T15 construct: purchased DiscoverX (KINOMEscan)
# PIK3CD = biological target: T16, PIK3CD (Homo sapiens, UniProt O00329); assay: kinome scan; format: binding; conditions: 10 µM
# T16 construct: purchased DiscoverX (KINOMEscan)
# TBK1 = biological target: T17, TBK1 (Homo sapiens, UniProt Q9UHD2); assay: kinome scan; format: binding; conditions: 10 µM
# T17 construct: purchased DiscoverX (KINOMEscan)
# CAMK1G = biological target: T18, CAMK1G (Homo sapiens, UniProt Q96NX5); assay: kinome scan; format: binding; conditions: 10 µM
# T18 construct: purchased DiscoverX (KINOMEscan)
# AKT2 = biological target: T19, AKT2 (Homo sapiens, UniProt P31751); assay: kinome scan; format: binding; conditions: 10 µM
# T19 construct: purchased DiscoverX (KINOMEscan)
# HCK = biological target: T20, HCK (Homo sapiens, UniProt P08631); assay: kinome scan; format: binding; conditions: 10 µM
# T20 construct: purchased DiscoverX (KINOMEscan)
# PRKCI = biological target: T21, PRKCI (Homo sapiens, UniProt P41743); assay: kinome scan; format: binding; conditions: 10 µM
# T21 construct: purchased DiscoverX (KINOMEscan)
# PIM1 = biological target: T22, PIM1 (Homo sapiens, UniProt P11309); assay: kinome scan; format: binding
# T22 construct: purchased DiscoverX (KINOMEscan)
# SRPK2 = biological target: T23, SRPK2 (Homo sapiens, UniProt P78362); assay: kinome scan; format: binding; conditions: 10 µM
# T23 construct: purchased DiscoverX (KINOMEscan)
# TLK1 = biological target: T24, TLK1 (Homo sapiens, UniProt Q9UKI8); assay: kinome scan; format: binding; conditions: 10 µM
# T24 construct: purchased DiscoverX (KINOMEscan)
# T24 sequence (Q9UKI8 whole entry): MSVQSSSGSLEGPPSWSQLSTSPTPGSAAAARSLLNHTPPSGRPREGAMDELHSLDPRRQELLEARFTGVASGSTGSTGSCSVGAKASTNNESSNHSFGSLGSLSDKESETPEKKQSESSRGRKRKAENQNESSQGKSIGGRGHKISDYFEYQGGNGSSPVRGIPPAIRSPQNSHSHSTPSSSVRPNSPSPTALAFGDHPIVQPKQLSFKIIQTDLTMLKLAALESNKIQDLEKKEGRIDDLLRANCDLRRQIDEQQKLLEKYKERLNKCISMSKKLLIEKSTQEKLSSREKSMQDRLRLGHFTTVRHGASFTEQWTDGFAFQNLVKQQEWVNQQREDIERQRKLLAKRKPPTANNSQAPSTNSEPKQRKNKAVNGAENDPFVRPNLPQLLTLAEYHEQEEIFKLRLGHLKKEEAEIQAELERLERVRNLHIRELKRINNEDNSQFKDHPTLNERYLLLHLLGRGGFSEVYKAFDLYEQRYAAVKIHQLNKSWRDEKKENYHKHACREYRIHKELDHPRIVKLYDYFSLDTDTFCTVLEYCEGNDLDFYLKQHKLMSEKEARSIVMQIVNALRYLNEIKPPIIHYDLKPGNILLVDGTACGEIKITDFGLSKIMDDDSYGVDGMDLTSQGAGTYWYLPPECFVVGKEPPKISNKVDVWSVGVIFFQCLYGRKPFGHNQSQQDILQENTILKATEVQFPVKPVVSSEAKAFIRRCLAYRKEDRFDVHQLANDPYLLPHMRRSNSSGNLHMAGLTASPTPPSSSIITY
# T3 sequence (Q9BVS4 whole entry, the tested form may be a part): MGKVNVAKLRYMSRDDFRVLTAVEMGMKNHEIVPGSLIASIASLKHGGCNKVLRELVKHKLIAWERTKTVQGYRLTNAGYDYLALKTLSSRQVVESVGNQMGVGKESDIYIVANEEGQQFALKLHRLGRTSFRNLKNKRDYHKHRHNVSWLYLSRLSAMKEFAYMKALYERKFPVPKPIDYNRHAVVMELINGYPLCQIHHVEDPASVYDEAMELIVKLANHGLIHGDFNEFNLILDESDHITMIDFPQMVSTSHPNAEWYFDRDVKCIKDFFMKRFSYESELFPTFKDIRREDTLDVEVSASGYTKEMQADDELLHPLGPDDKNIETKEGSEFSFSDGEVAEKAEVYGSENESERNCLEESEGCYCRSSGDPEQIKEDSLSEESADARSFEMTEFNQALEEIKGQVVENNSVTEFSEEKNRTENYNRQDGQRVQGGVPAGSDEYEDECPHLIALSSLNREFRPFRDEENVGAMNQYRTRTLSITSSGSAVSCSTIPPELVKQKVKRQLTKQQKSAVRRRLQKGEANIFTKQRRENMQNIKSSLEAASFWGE
# T22 sequence (P11309 whole entry): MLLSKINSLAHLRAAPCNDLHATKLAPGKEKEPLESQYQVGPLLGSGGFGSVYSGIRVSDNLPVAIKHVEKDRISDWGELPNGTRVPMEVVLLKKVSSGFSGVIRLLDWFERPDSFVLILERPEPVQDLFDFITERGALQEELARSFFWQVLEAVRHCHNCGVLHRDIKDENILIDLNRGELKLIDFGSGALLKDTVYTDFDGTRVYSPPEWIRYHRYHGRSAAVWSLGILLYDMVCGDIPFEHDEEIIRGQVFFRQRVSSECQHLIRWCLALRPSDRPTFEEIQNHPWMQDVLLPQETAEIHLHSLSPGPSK
# T21 sequence (P41743 whole entry): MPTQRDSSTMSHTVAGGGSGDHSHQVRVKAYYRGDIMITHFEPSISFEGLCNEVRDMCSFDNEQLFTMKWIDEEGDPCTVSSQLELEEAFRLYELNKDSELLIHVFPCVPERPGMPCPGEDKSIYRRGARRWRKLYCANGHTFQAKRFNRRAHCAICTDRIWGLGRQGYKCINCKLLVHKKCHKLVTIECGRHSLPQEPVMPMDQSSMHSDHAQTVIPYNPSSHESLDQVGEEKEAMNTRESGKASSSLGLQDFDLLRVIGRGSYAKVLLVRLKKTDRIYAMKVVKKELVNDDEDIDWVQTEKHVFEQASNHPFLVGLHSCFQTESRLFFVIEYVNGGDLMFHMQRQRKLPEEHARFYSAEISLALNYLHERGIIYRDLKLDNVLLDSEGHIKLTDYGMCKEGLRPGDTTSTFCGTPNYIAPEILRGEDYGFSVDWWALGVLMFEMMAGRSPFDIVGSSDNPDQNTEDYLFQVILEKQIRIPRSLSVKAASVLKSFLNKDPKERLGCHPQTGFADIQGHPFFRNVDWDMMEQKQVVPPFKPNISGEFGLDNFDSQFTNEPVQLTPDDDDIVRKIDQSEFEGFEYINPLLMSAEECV
# T23 sequence (P78362 whole entry): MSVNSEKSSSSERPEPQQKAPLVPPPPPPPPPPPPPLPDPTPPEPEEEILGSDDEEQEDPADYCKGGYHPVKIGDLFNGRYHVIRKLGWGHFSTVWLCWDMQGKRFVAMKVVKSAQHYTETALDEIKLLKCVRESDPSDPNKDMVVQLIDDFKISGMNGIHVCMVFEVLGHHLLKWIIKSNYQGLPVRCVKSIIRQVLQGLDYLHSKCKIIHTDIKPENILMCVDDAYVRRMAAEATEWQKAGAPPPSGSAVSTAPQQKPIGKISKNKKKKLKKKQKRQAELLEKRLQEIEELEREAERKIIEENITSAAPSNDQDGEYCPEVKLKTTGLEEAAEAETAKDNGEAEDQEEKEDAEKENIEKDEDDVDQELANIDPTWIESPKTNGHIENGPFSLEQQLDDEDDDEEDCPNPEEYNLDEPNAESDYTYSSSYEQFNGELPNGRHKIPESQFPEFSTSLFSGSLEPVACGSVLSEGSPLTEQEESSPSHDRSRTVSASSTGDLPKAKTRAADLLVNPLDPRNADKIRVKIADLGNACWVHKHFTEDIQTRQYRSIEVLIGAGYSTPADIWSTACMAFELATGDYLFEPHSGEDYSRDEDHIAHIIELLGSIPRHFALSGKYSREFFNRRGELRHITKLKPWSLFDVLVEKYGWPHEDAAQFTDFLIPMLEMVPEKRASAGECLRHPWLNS
# T20 sequence (P08631 whole entry): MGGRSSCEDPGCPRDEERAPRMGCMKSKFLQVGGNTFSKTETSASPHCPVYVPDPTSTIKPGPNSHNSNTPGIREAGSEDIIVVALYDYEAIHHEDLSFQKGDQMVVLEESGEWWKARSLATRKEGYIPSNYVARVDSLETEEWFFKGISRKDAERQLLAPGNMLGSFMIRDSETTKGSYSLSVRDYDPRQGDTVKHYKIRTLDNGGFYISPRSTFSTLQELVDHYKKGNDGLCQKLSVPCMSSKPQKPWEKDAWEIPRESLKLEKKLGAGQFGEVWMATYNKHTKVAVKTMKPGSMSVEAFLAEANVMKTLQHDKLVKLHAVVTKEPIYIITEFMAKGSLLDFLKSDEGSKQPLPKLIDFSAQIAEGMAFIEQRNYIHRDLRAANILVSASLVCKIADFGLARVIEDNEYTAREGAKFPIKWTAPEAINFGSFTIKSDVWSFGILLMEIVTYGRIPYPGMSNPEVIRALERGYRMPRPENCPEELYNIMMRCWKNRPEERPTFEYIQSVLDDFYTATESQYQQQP
# T5 sequence (Q8N752 whole entry): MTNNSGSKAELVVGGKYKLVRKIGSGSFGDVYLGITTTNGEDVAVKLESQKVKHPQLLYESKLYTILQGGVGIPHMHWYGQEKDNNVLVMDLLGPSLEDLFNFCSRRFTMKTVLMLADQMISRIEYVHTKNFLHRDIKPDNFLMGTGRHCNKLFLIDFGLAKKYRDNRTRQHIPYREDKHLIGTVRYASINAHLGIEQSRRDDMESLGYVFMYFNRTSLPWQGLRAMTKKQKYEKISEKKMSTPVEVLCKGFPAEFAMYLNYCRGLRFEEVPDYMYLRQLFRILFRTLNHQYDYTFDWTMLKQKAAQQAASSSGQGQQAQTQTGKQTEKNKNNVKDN
# T11 sequence (P23458 854-1154 limits assumed): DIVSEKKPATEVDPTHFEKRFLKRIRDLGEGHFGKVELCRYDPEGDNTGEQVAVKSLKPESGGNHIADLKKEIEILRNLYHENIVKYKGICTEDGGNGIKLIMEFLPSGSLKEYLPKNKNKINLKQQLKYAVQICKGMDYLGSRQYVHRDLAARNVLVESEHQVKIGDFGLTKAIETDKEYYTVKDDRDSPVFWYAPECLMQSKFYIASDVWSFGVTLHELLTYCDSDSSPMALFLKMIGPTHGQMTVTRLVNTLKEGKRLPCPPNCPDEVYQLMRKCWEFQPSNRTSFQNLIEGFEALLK
# T18 sequence (Q96NX5 whole entry): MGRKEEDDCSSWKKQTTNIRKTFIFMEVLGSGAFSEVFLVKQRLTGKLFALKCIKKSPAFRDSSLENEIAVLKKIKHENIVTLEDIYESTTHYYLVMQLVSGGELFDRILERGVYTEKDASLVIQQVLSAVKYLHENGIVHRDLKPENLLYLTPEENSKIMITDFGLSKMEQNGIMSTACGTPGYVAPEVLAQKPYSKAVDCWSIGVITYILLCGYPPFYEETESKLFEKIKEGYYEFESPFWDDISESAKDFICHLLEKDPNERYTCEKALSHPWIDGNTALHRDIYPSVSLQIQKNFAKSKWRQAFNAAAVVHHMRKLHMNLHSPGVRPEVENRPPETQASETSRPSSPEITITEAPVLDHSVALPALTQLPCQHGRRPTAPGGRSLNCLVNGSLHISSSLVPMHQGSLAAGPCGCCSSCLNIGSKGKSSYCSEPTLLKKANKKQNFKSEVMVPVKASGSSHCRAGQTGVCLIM
# T1 sequence (Q9BXA7 whole entry): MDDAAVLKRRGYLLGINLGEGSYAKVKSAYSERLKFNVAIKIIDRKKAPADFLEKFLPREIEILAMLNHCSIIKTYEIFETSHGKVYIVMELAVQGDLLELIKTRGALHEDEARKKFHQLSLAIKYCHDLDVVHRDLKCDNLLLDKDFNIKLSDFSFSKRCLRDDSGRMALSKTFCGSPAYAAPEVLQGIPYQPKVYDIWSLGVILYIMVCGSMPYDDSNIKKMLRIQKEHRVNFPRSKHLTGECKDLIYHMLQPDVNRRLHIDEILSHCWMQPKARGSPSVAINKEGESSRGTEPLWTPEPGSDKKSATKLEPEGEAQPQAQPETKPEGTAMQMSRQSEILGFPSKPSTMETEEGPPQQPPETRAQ
smiles,measurement,setting,value
"Nc1ccc(N=Nc2ccccc2)c(N)n1 [phenazopyridine, 2,6-diamino-3-(phenylazo)pyridine]",kinase inhibition,TSSK1B,87
same,kinase inhibition,CLK3,99
same,remaining binding (% of control),RIOK2; 10 µM,0
same,remaining binding at 10 µM,RIOK2; read-out: % Of control,0%
same,kinase inhibition,[1],32
same,kinase inhibition,CSNK1A1L,100
same,percent of control binding,DYRK2; 10 µM,20
same,remaining binding at 10 µM,DYRK2; read-out: % Of control,20%
same,kinase inhibition,MST1R,94
same,kinase inhibition,PIK3C2B,70
same,remaining binding (% of control),FLT3(D835H),81
same,pKd,TYK2,4.59
same,kinase inhibition,TLK2,100
same,kinase inhibition,[2],97
same,kinase inhibition,AURKA,100
same,toxicity (signal in the presence of propidium iodide),[3],without any toxicity
same,kinase inhibition,EPHA8,86
same,kinase inhibition,ASK1,100
same,kinase inhibition,YANK2,90
same,kinase inhibition,PIK3CD,78
same,kinase inhibition,TBK1,100
same,kinase inhibition,CAMK1G,88
same,kinase inhibition,AKT2,100
same,kinase inhibition,HCK,100
same,kinase inhibition,PRKCI,100
same,remaining binding (% of control),PIM1; 10 µM,100
same,remaining binding at 10 µM,PIM1; read-out: Kinome scan (% of control at 10 µM),100%
same,kinase inhibition,SRPK2,100
same,kinase inhibition,TLK1,70

# From article PMC8371461 (Frontiers in Pharmacology, 2021)
